pIC50: −log10 of the molar value. Structures can show the parent of a compound that is named as a salt. Where two headings read alike, the source gives them in different places.
Tests used:
Assay type in all cases: biochemical
TYK2 = TYK2 (Homo sapiens, UniProt P29597); assay: TYK2 kinase inhibition (Table A1)
[1] = molecular target: T1, human JAK3 (a.a. 781-1124) (Homo sapiens, UniProt P52333); assay: In vitro JAK kinase assay (HTRF, phosphorylation of a biotinylated peptide), JAK3
T1 construct: JAK3 (a.a. 781-1124); His tag (N); made in house; host or cells: insect cells (baculovirus)
T1 sequence (P52333 781-1124): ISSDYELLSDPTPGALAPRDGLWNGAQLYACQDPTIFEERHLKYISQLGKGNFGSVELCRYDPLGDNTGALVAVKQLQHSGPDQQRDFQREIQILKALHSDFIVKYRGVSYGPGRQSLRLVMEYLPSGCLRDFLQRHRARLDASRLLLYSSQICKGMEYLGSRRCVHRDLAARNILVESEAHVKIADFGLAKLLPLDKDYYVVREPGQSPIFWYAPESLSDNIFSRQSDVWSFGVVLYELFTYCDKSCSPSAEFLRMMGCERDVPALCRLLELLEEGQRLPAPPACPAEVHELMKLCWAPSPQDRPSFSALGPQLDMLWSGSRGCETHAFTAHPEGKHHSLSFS
Outline: (§1)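 Kinase reactions ran at room temperature for 1 h with ATP matched per isoform (JAK1 90 μM, JAK2 30 μM, JAK3 3 μM). After an EDTA stop, the phosphorylated biotin-peptide was read by HTRF using Eu-Py20 and SA-APC after 40 min binding.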

[2] = molecular target: T2, human JAK1 (a.a. 837-1142) (Homo sapiens, UniProt P23458); assay: In vitro JAK kinase assay (HTRF, phosphorylation of a biotinylated peptide), JAK1; conditions: read-out: JAK1 IC50
T2 construct: human JAK1 (a.a. 837-1142); His tag (N); made in house; host or cells: insect cells (baculovirus)
T2 sequence (P23458 849-1154): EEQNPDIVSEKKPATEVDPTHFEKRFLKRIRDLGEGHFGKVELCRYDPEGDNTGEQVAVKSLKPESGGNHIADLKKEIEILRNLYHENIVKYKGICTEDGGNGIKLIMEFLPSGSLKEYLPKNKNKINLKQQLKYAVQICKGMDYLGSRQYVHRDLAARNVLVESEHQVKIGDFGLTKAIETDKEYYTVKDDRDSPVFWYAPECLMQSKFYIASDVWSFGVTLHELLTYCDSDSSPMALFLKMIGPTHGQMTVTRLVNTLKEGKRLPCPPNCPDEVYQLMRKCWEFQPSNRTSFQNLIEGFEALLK
Outline: as §1

[3] = molecular target: T3, human JAK2 (a.a. 828-1132) (Homo sapiens, UniProt O60674); assay: In vitro JAK kinase assay (HTRF, phosphorylation of a biotinylated peptide), JAK2
T3 construct: JAK2 (a.a. 828-1132); His tag (N); made in house; host or cells: insect cells (baculovirus)
T3 sequence (O60674 828-1132): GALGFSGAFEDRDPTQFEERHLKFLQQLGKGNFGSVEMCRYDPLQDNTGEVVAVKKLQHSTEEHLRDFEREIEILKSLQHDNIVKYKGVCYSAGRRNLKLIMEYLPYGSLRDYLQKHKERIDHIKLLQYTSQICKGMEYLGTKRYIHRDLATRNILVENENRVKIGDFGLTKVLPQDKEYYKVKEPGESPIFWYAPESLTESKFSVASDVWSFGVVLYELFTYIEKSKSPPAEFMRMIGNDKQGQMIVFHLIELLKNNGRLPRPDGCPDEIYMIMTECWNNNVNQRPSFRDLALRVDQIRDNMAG
Outline: as §1

TYK2, sequence (P29597 whole entry): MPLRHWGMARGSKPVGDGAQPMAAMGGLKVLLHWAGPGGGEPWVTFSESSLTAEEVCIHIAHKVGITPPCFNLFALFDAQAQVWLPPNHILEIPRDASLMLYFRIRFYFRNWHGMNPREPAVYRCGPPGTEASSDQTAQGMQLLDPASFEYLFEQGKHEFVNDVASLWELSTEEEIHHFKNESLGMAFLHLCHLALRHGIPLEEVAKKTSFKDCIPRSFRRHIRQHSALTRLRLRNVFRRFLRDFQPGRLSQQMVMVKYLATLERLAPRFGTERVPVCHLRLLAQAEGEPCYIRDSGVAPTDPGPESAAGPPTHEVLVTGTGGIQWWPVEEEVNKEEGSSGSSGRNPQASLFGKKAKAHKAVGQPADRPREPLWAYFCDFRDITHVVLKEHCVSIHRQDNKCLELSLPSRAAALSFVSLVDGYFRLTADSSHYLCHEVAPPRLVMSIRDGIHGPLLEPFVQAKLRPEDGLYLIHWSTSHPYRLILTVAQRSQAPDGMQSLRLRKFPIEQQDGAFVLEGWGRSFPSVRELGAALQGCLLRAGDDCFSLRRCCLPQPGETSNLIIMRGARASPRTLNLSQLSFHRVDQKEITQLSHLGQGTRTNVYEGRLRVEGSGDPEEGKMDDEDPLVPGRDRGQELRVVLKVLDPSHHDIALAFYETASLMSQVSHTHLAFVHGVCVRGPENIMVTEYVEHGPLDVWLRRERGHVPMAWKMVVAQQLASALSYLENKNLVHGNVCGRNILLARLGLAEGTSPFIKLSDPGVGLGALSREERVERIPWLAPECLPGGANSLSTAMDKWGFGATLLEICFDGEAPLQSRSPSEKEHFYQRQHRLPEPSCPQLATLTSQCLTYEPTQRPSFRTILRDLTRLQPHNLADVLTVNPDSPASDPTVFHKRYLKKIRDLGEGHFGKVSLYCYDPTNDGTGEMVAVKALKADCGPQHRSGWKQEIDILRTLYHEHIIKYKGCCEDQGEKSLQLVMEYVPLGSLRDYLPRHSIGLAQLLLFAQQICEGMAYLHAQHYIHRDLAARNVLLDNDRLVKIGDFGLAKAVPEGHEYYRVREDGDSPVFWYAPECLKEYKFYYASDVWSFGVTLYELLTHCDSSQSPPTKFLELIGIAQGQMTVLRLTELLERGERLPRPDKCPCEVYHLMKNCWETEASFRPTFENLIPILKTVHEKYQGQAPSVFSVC

Row | SMILES | pIC50 (TYK2; Table D1) | pIC50 ([1]; Table D1) | pIC50 ([2]; Table D1) | pIC50 ([3]; Table D1) | other results
1 | O=C(c1ccncc1)N1CCC(CCOc2ccc3cc2CCc2cncc(c2)Nc2ncc(Cl)c(n2)N3)CC1 [Example D181, 6-Chloro-12-[2-(1-isonicotinoylpiperidin-4-yl)ethoxy]-2,4,8,18,22-pentaazatetracyclo[14.3.1.1(3,7).1(9,13)]docosa-1(20),3(22),4,6,9(21),10,12,16,18-nonaene tris(trifluoroacetate)] | < 6.40 | < 6.40 | 6.94 | 6.50 | –
2 | Cc1cnc2nc1Nc1ccc(NC(=O)CC3CCN(c4nncs4)CC3)c(c1)CCc1cccc(c1)N2 [Example C53, N-[6-Methyl-2,4,8,22-tetraazatetracyclo[14.3.1.1(3,7).1(9,13)]docosa-1(20),3(22),4,6,9(21),10,12,16,18-nonaen-12-yl]-2-[1-(1,3,4-thiadiazol-2-yl)piperidin-4-yl]acetamide trifluoroacetate] | – | – | – | – | pIC50 (TYK2): 6.70; pIC50 [1]: < 6.70; pIC50 [2]: 7.41; pIC50 [3]: < 6.70
3 | Cc1cc(C(=O)N2CCC(CC(=O)Nc3ccc4cc3CCc3cncc(c3)Nc3ncc(F)c(n3)N4)CC2)no1 [Example C49, N-[6-Fluoro-2,4,8,18,22-pentaazatetracyclo[14.3.1.1(3,7).1(9,13)]docosa-1(20),3(22),4,6,9(21),10,12,16,18-nonaen-12-yl]-2-{1-[(5-methylisoxazol-3-yl)carbonyl]piperidin-4-yl}acetamide trifluoroacetate] | – | – | – | – | pIC50 (TYK2): 6.49; pIC50 [1]: < 6.40; pIC50 [2]: 7.30; pIC50 [3]: < 6.40
4 | O=C(COc1ccc2cc1CCc1cncc(c1)Nc1ncc(Cl)c(n1)N2)N1CCN(c2nccs2)CC1 [Example D230, 6-Chloro-12-{2-oxo-2-[4-(1,3-thiazol-2-yl)piperazin-1-yl]ethoxy}-2,4,8,18,22-pentaazatetracyclo[14.3.1.1(3,7).1(9,13)]docosa-1(20),3(22),4,6,9(21),10,12,16,18-nonaene tris(trifluoroacetate)] | < 6.40 | < 6.40 | 7.60 | 7.33 | –
5 | Cc1nc(S(=O)(=O)Nc2ccc3cc2CCc2cccc(c2)Nc2ncc(Cl)c(n2)N3)cn1C [Example B151, N-[6-Chloro-2,4,8,22-tetraazatetracyclo[14.3.1.1(3,7).1(9,13)]docosa-1(20),3(22),4,6,9(21),10,12,16,18-nonaen-12-yl]-1,2-dimethyl-1H-imidazole-4-sulfonamide bis(trifluoroacetate)] | – | – | – | – | pIC50 (TYK2; Table B1): 8.85; pIC50 ([1]; Table B1): 7.44; pIC50 ([2]; Table B1): 8.54; pIC50 ([3]; Table B1): 8.92
6 | O=C(CC1CN(C(=O)c2cn[nH]c2)C1)Nc1ccc2cc1CCc1cncc(c1)Nc1ncc(Cl)c(n1)N2 [Example D149, N-[6-Chloro-2,4,8,18,22-pentaazatetracyclo[14.3.1.1(3,7).1(9,13)]docosa-1(20),3(22),4,6,9(21),10,12,16,18-nonaen-12-yl]-2-[1-(1H-pyrazol-4-ylcarbonyl)azetidin-3-yl]acetamide bis(trifluoroacetate)] | 6.77 | < 6.00 | 7.74 | 7.03 | –
7 | Clc1cnc2nc1Nc1ccc(NCCC3CCNCC3)c(c1)CCc1cncc(c1)N2 [Example D216, 6-Chloro-N-(2-piperidin-4-ylethyl)-2,4,8,18,22-pentaazatetracyclo[14.3.1.1(3,7).1(9,13)]docosa-1(20),3(22),4,6,9(21),10,12,16,18-nonaen-12-amine tetrakis(trifluoroacetate)] | 6.52 | < 6.40 | 7.64 | 6.56 | –
8 | O=C(COc1ccc2cc1CCc1cncc(c1)Nc1ncc(Cl)c(n1)N2)N1CCN(c2ccc(F)cc2)CC1 [Example D242, 6-Chloro-12-{2-[4-(4-fluorophenyl)piperazin-1-yl]-2-oxoethoxy}-2,4,8,18,22-pentaazatetracyclo[14.3.1.1(3,7).1(9,13)]docosa-1(20),3(22),4,6,9(21),10,12,16,18-nonaene tris(trifluoroacetate)] | < 6.40 | < 6.40 | 7.34 | 6.80 | –
9 | O=C(Cc1nnn[nH]1)Nc1ccc2cc1CCc1cccc(c1)Nc1ncc(Cl)c(n1)N2 [Example C31, N-[6-Chloro-2,4,8,22-tetraazatetracyclo[14.3.1.1(3,7).1(9,13)]docosa-1(20),3(22),4,6,9(21),10,12,16,18-nonaen-12-yl]-2-(1H-tetrazol-5-yl)acetamide trifluoroacetate] | – | – | – | – | pIC50 (TYK2): 6.32; pIC50 [1]: 6.39; pIC50 [2]: 6.85; pIC50 [3]: 7.62
10 | O=C(CC1CN(C(=O)c2ccno2)C1)Nc1ccc2cc1CCc1cncc(c1)Nc1ncc(Cl)c(n1)N2 [Example D144, N-[6-Chloro-2,4,8,18,22-pentaazatetracyclo[14.3.1.1(3,7).1(9,13)]docosa-1(20),3(22),4,6,9(21),10,12,16,18-nonaen-12-yl]-2-[1-(isoxazol-5-ylcarbonyl)azetidin-3-yl]acetamide bis(trifluoroacetate)] | 6.59 | < 6.00 | 7.49 | 6.76 | –
11 | O=C(C[C@H]1CCN(c2nc3cccnc3o2)C1)Nc1ccc2cc1CCc1cncc(c1)Nc1ncc(Cl)c(n1)N2 [Example D139, N-[6-Chloro-2,4,8,18,22-pentaazatetracyclo[14.3.1.1(3,7).1(9,13)]docosa-1(20),3(22),4,6,9(21),10,12,16,18-nonaen-12-yl]-2-[(3R)-1-[1,3]oxazolo[5,4-b]pyridin-2-ylpyrrolidin-3-yl]acetamide tris(trifluoroacetate)] | 6.55 | < 6.00 | 7.92 | 6.80 | –
12 | CN1CCN(Cc2cc3cc(c2)Nc2ncc(Cl)c(n2)Nc2cccc(c2)OCC3)CC1 [Example D190, 6-Chloro-19-[(4-methylpiperazin-1-yl)methyl]-14-oxa-2,4,8,23-tetraazatetracyclo[15.3.1.1(3,7).1(9,13)]tricosa-1(21),3(23),4,6,9(22),10,12,17,19-nonaene tris(trifluoroacetate)] | 8.46 | 8.52 | 7.62 | 9.05 | –
13 | O=C(C[C@@H]1CCN(c2nc3ccccc3s2)C1)Nc1ccc2cc1CCc1cncc(c1)Nc1ncc(Cl)c(n1)N2 [Example D137, 2-[(3S)-1-(1,3-Benzothiazol-2-yl)pyrrolidin-3-yl]-N-[6-chloro-2,4,8,18,22-pentaazatetracyclo[14.3.1.1(3,7).1(9,13)]docosa-1(20),3(22),4,6,9(21),10,12,16,18-nonaen-12-yl]acetamide tris(trifluoroacetate)] | 7.18 | < 6.00 | 8.80 | 7.82 | –
14 | O=C(c1ccc(C(F)(F)F)cc1)N1CCN(c2ccc3cc2CCc2cccc(c2)Nc2ncc(Cl)c(n2)N3)CC1 [Example D96, 6-Chloro-12-{4-[4-(trifluoromethyl)benzoyl]piperazin-1-yl}-2,4,8,22-tetraazatetracyclo[14.3.1.1(3,7).1(9,13)]docosa-1(20),3(22),4,6,9(21),10,12,16,18-nonaene bis(trifluoroacetate)] | 6.71 | 6.83 | 6.95 | 7.31 | –
15 | C[N+]1(C)CCN(c2ccc3cc2CCc2cccc(c2)Nc2ncc(Cl)c(n2)N3)CC1 [Example D86, 4-[6-Chloro-2,4,8,22-tetraazatetracyclo[14.3.1.1(3,7).1(9,13)]docosa-1(20),3(22),4,6,9(21),10,12,16,18-nonaen-12-yl]-1,1-dimethylpiperazin-1-ium bis(trifluoroacetate)] | 6.57 | 6.77 | 6.53 | 7.06 | –
16 | Cn1cc(C(=O)N2CC(CC(=O)Nc3ccc4cc3CCc3cncc(c3)Nc3ncc(Cl)c(n3)N4)C2)cn1 [Example D142, N-[6-Chloro-2,4,8,18,22-pentaazatetracyclo[14.3.1.1(3,7).1(9,13)]docosa-1(20),3(22),4,6,9(21),10,12,16,18-nonaen-12-yl]-2-{1-[(1-methyl-1H-pyrazol-4-yl)carbonyl]azetidin-3-yl}acetamide bis(trifluoroacetate)] | 6.71 | < 6.00 | 7.43 | 6.84 | –
17 | COC(=O)N1CCN(C(=O)COc2ccc3cc2CCc2cncc(c2)Nc2ncc(Cl)c(n2)N3)CC1 [Example D261, Methyl 4-({[6-chloro-2,4,8,18,22-pentaazatetracyclo[14.3.1.1(3,7).1(9,13)]docosa-1(20),3(22),4,6,9(21),10,12,16,18-nonaen-12-yl]oxy}acetyl)piperazine-1-carboxylate bis(trifluoroacetate)] | < 6.40 | < 6.40 | 7.51 | 6.97 | –
18 | O=C(NCc1ccco1)N1CCC(CCOc2ccc3cc2CCc2cncc(c2)Nc2ncc(Cl)c(n2)N3)CC1 [Example D165, 4-(2-{[6-Chloro-2,4,8,18,22-pentaazatetracyclo[14.3.1.1(3,7).1(9,13)]docosa-1(20),3(22),4,6,9(21),10,12,16,18-nonaen-12-yl]oxy}ethyl)-N-(2-furylmethyl)piperidine-1-carboxamide bis(trifluoroacetate)] | < 6.40 | < 6.40 | 7.28 | 6.68 | –

Reference: patent US8871753B2, “Macrocyclic compounds and their use as kinase inhibitors” (Incyte Corporation, priority 2008, dated 2014)
